Data on one molecule can be found in US20140080810A1 (Exelixis, Inc., priority 2010, published 2014).

For assay [1], the system named is pAKT (T308) in MCF-7 cells (PI3Kα E545K). In words: pAKT (T308) ELISA Assay. It is filed as cell-based. The settings on record: Homo sapiens, MCF7; IGF1 stimulation; read-out: pAKT (T308) IC50 MCF-7 PI3Kα E545K IGF1. The procedure:
MCF-7 cells (ATCC) cells were seeded at 24000 cells per well in 96-well plates (Corning, 3904) in DMEM (Cellgro) containing 10% FBS (Cellgro), 1% NEAA (Cellgro) and 1% penicillin-streptomycin (Cellgro). Cells were incubated at 37° C., 5% CO2 for 48 h, and the growth medium was replaced with serum-free DMEM or in medium containing 0.4% BSA. Serial dilutions of the test Compound in 0.3% DMSO (vehicle) were added to the cells and incubated for 3 h. At the end of the incubation period, cells were stimulated for 10 minutes by the addition of L-IGF (Sigma, I-1271) at a final concentration of 100 ng/ml. Afterwards, media was discarded from cell plates and 110 μl/well of cold lysis buffer (see table below) were added. Cell plates were incubated on ice and then put on shaker in 4° C. cold room for 1 h. Two capture plates (Thermo Scientific, Reacti-bind plate, 15042) were prepared for each cell plate by pre-coating with capture Akt antibody from the two sandwich ELISA antibody pairs used (Cell Signaling Technology 7142 and 7144). The Akt capture antibodies were diluted 1:100 in PBS and 100 μl of diluted capture antibody was added per well. Capture plates were incubated at 4 C overnight. Prior to use, capture plates were washed 3 times in TBS containing 0.1% Tween20 (Bio-Rad, 170-6351) (TBST) and blocked in blocking buffer (Thermo Scientific, Starting Block T20, 37543) for 1-2 h at room temperature. After 1 h of cell lysis, 85 μl of cell lysate/well was transferred to the capture plate for detection of pAkt(T308). 15 μl of cell lysate was transferred from same well to the second capture plate for detection of total Akt1. After incubation overnight at 4° C., plates were washed 3 times with 200 μL TBST. Primary antibodies, diluted 1:100 in blocking buffer, were added to the corresponding capture plates for pAkt(T308) (Cell Signaling Technology, 7144) and total Akt1 (Cell Signaling Technology, 7142) detection and incubated at room temperature for 1 h. Plates were washed 3 times with 200 μL of TBST. Goat anti-mouse secondary antibody (Cell Signaling Technology, 7076) conjugated to HRP was diluted 1:1000 in blocking buffer and 100 μl were added to each well and incubated for 30 minutes at room temperature. Plates were then washed 3 times with 200 μL of TBST. 100 μL of SuperSignal ELISA Femto stable peroxidase solution (Thermo Scientific, 37075) was added to each well. After 1 minute incubation, chemiluminescence was read on a Wallac Victor2 1420 multilabel counter. IC50 values were determined based on the ratio of pAkt(T308) to total Akt1 signal for Compound treated wells, normalized to the DMSO-treated control wells.
In another embodiment, the pAKT ELISA Assay was performed by seeding cells onto 96-well plates (Corning, 3904) in their respective growth media at the densities listed in Table 5. Cells were incubated at 37° C., 5% CO2 for 48 h (except MDA-MB-453 cells which were cultured in the absence of CO2). Compounds were serially diluted in DMSO and subsequently diluted in serum-free DMEM. Test compounds were added to cells in serum-free DMEM at a final concentration of 0.3% DMSO and incubated for 3 h. Cells were lysed with 130 μL of ice-cold RIPA lysis buffer (50 mM Tris-HCl, pH 7.5; 0.5% sodium deoxycholic acid; 1% Triton X-100; 0.1% SDS; 150 mM NaCl) with protease and phosphatase inhibitors (1 mM EDTA, 1 mM NaF, 20 mM β-glycerophosphate, 1 mM Na-orthovanadate, Complete-Mini EDTA-free, Roche, 11836170001, and Phosphatase Inhibitor Cocktail I, Sigma, P2850), directly in 96-well plates. Cells were lysed on ice for 60-120 min at 4° C. The supernatants were added directly to capture ELISA plates previously pre-coated with rabbit anti-AKT capture antibody. ELISA assays for pAKT(T308) and total AKT were performed with the pAKT(T308) ELISA kit (Cell Signaling Technology, 7144) and AKT1 ELISA kit (Cell Signaling Technology, 7142). For the pAKT(T308) ELISA, 85 μL of cell lysate was added to each well. […]
In general terms: In an ELISA, binding on a coated surface is turned into a signal by an enzyme label.

In assay [2] the test system is PTEN-negative tumors. The settings on record: specific inhibition of PI3Kβ; cited from earlier work.
The subject of assay [3] is PTEN-negative tumors. The settings on record: specific inhibition of PI3Kβ; cited from earlier work. This is another data set of the same source.

With `Cc1cc(C(C)Nc2ccccc2)c2nc(N3CCOCC3)cc(=O)n2c1` (stereo not drawn) [TGX-221, 7-methyl-2-(4-morpholinyl)-9-[1-(phenylamino)ethyl]-4H-pyrido[1,2-a]pyrimidin-4-one], in assay [1], the IC50 is 1760 nM. Besides, the “basal AKT phosphorylation” value in the assay with PTEN-negative tumors [2] is listed as “blocks”. Also, in the assay with PTEN-negative tumors [3], the cell growth entry is “blocks”.

As a reminder, the IC50 is the midpoint of a concentration-inhibition curve.
